Assay results taken from article PMC3234165 (Biochemistry, 2011).

How the values were obtained:
[1] = molecular target: β-2 (β-adrenergic receptor subtype 2) (Homo sapiens, UniProt P07550); test: NIMH PDSP secondary binding assay
MCF-7 = test: Multiplex cytotoxicity assay; format: cell-based; settings: Homo sapiens, MCF7, read-out: IC50 MCF-7
Sig-1R, sigma-1 receptor = Sig-1R, sigma-1 receptor (Rattus norvegicus, UniProt Q9R0C9); test: NIMH PDSP secondary binding assay
[2] = molecular target: 5HT1B (serotonin receptor subtype 1B) (Homo sapiens, UniProt P28222); test: NIMH PDSP secondary binding assay
[3] = molecular target: H1 (histamine receptor type 1) (Homo sapiens, UniProt P35367); test: NIMH PDSP secondary binding assay
HT-29 = test: Multiplex cytotoxicity assay; format: cell-based; settings: Homo sapiens, HT-29, read-out: IC50 HT-29
[4] = molecular target: T1, α-1A (α-adrenergic receptor subtype 1A) (Homo sapiens, UniProt P35348); test: NIMH PDSP secondary binding assay
T1 sequence (P35348 1-466): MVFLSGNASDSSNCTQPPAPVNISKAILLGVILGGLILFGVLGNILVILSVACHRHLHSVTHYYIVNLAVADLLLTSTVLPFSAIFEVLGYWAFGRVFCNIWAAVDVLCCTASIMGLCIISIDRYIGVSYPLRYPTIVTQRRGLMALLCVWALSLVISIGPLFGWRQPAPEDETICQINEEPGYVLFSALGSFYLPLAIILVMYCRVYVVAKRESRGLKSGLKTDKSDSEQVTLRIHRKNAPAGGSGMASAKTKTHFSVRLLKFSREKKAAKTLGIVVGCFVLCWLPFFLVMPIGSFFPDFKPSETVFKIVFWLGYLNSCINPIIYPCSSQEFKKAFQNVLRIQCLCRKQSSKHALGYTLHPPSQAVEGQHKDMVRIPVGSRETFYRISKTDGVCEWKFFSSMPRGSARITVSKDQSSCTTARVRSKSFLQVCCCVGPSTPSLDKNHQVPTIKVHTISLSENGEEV

[5] = molecular target: 5HT7 (serotonin receptor subtype 7) (Homo sapiens, UniProt P34969); test: NIMH PDSP secondary binding assay
[6] = molecular target: SERT (serotonin transporter) (Homo sapiens, UniProt P31645); test: NIMH PDSP secondary binding assay
MDA-MB-231 = test: Multiplex cytotoxicity assay; format: cell-based; settings: Homo sapiens, MDA-MB-231, read-out: IC50 MDA-MB-231
HCT-15 = test: Multiplex cytotoxicity assay; format: cell-based; settings: Homo sapiens, HCT-15, read-out: IC50 HCT-15
[7] = molecular target: NET (norepinephrine transporter) (Homo sapiens, UniProt P23975); test: NIMH PDSP secondary binding assay
SF-268 = test: Multiplex cytotoxicity assay; format: cell-based; settings: Homo sapiens, SF-268, read-out: IC50 SF-268
[8] = molecular target: M1 (muscarinic acetylcholine receptor type 1) (Homo sapiens, UniProt P11229); test: NIMH PDSP secondary binding assay
NCI-H460 = test: Multiplex cytotoxicity assay; format: cell-based; settings: Homo sapiens, NCI-H460, read-out: IC50 NCI-H460
[9] = molecular target: β-3 (β-adrenergic receptor subtype 3) (Homo sapiens, UniProt P13945); test: NIMH PDSP secondary binding assay
MCF-10A = test: Multiplex cytotoxicity assay; format: cell-based; settings: Homo sapiens, read-out: IC50 MCF-10A
SK-OV-3 = test: Multiplex cytotoxicity assay; format: cell-based; settings: Homo sapiens, SK-OV-3, read-out: IC50 SK-OV-3
Du145 = test: Multiplex cytotoxicity assay; format: cell-based; settings: Homo sapiens, DU-145, read-out: IC50 Du145
[10] = molecular target: 5HT2B (serotonin receptor subtype 2B) (Homo sapiens, UniProt P41595); test: NIMH PDSP secondary binding assay
caspases 3/7, 8, and 9 = test: Caspase activation potential; format: cell-based; settings: data not shown
[11] = molecular target: M5 (muscarinic acetylcholine receptor type 5) (Homo sapiens, UniProt P08912); test: NIMH PDSP secondary binding assay
[12] = molecular target: T2, α-1D (α-adrenergic receptor subtype 1D) (Homo sapiens, UniProt P25100); test: NIMH PDSP secondary binding assay
T2 sequence (P25100 1-572): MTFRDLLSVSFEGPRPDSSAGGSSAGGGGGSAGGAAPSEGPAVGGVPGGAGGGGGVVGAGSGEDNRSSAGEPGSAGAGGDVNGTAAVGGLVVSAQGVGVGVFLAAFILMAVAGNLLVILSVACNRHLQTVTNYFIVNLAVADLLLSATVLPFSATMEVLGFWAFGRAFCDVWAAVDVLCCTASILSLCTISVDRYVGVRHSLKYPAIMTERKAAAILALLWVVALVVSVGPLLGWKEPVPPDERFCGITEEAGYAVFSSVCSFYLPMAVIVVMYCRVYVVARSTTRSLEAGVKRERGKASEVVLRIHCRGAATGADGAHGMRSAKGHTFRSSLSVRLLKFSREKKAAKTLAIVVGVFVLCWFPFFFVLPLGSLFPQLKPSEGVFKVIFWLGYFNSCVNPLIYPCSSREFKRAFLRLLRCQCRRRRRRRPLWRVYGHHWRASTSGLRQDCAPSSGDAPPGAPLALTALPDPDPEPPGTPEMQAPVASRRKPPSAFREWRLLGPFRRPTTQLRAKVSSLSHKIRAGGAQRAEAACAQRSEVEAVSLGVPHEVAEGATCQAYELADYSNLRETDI

[13] = molecular target: T3, sigma-2 receptor (sigma-2 sites) (Rattus norvegicus, UniProt Q5U3Y7); test: Competitive displacement of [3H]-DTG binding, rat liver membranes; settings: for KI sigma-2 sites: rat liver membranes in the presence of 100 nM (+)-pentazocine, [3H]-DTG; for sigma-2/sigma-1: ratio from the KI value of sigma-1 and sigma-2 sites (membranes)
T3 sequence (Q5U3Y7 1-176): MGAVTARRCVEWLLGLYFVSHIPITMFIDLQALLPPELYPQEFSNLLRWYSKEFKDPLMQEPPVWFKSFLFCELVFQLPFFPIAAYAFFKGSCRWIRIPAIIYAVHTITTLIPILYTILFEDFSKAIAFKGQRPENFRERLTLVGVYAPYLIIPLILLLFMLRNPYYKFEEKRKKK

[14] = molecular target: D1 (dopamine receptor type 1) (Homo sapiens, UniProt P21728); test: NIMH PDSP secondary binding assay

Chain of 5HT7 (serotonin receptor subtype 7) (P34969 whole entry, species assumed): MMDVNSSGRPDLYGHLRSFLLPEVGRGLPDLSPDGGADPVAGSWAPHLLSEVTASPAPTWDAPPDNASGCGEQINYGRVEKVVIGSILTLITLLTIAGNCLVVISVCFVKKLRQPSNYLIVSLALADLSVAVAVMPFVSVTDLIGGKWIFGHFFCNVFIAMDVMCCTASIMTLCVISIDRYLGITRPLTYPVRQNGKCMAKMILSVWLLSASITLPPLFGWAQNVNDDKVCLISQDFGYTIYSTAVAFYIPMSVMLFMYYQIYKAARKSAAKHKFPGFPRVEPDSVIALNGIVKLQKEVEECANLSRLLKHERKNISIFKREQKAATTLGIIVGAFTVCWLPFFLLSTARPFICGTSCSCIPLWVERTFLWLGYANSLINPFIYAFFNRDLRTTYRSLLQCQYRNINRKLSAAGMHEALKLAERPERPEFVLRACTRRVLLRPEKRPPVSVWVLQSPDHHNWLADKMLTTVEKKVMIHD
Chain of M1 (muscarinic acetylcholine receptor type 1) (P11229 whole entry): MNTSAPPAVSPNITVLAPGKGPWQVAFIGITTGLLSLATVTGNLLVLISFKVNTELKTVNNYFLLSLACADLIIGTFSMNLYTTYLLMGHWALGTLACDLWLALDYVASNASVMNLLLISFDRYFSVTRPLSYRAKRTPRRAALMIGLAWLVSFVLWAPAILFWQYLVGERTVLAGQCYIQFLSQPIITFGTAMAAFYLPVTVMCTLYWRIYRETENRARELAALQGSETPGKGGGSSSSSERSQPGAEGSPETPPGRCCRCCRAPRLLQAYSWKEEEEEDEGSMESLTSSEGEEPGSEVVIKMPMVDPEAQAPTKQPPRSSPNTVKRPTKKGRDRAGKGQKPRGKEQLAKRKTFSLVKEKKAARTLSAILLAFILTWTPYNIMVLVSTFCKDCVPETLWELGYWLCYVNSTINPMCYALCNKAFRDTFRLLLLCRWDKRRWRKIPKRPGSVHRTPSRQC
Chain of β-2 (β-adrenergic receptor subtype 2) (P07550 whole entry): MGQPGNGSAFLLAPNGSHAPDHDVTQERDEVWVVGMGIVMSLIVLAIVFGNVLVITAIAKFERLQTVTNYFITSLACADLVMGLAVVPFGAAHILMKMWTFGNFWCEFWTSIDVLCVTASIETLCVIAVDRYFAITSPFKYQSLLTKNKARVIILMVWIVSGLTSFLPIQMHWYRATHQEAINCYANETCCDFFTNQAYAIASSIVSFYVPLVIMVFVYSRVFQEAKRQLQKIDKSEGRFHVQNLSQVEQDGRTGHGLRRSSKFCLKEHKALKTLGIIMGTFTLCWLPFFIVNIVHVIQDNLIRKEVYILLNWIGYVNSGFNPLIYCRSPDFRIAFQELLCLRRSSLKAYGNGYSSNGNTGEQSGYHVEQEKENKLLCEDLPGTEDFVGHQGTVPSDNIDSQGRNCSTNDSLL
Chain of H1 (histamine receptor type 1) (P35367 whole entry): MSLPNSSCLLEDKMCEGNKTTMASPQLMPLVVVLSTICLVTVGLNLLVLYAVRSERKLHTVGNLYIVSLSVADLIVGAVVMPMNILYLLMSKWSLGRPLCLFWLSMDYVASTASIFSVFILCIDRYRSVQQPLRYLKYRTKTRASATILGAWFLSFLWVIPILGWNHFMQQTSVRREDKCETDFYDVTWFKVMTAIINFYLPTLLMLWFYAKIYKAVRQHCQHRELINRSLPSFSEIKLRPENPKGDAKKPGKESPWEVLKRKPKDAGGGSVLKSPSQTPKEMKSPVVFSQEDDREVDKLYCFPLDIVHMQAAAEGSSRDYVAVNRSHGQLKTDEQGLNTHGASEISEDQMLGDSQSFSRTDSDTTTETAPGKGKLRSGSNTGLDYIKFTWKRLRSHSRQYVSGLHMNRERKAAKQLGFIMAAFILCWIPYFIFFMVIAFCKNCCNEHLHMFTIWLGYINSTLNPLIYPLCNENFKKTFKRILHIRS
Chain of 5HT2B (serotonin receptor subtype 2B) (P41595 whole entry, species assumed): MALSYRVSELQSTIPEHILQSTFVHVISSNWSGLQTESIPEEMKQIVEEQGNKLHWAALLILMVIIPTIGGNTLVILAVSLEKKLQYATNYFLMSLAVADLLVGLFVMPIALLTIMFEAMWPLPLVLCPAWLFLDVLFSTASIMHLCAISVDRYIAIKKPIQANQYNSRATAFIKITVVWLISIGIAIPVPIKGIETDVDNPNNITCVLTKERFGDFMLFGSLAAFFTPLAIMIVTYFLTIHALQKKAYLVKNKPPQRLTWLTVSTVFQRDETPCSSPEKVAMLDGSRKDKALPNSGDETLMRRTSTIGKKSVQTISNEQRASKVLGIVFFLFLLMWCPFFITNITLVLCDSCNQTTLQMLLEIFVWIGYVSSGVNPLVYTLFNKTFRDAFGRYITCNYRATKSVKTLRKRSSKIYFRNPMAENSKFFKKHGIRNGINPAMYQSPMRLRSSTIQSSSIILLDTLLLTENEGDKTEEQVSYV
Chain of M5 (muscarinic acetylcholine receptor type 5) (P08912 whole entry): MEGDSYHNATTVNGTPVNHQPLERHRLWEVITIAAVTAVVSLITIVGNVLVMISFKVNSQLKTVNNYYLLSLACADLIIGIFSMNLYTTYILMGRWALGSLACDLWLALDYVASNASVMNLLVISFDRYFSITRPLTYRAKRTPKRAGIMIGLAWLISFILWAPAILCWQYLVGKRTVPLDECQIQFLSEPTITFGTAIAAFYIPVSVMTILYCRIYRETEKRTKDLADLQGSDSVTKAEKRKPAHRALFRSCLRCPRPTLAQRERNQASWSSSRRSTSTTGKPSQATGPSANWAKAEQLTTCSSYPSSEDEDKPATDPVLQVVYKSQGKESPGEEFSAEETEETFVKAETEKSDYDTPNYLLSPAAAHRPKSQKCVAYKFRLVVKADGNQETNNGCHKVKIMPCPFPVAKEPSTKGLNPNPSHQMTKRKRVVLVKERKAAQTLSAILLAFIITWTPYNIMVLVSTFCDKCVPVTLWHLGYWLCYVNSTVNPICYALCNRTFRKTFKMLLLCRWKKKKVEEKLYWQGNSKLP
Chain of SERT (serotonin transporter) (P31645 whole entry, species assumed): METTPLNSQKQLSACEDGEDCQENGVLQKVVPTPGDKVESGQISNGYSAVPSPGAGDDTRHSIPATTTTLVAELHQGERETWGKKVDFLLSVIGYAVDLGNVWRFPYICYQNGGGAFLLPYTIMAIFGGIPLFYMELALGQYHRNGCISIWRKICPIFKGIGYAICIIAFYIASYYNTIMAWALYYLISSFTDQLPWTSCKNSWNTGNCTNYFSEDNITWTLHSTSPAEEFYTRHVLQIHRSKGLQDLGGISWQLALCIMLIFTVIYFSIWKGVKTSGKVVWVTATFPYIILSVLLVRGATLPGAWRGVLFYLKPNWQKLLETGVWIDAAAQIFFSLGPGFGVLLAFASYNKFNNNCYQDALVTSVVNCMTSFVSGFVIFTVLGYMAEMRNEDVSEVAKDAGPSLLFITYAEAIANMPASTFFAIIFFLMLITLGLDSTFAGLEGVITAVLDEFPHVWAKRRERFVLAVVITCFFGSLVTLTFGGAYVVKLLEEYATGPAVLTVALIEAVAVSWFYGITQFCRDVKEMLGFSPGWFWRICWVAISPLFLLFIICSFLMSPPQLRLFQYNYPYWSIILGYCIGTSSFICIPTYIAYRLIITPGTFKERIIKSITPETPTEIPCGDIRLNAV
Chain of 5HT1B (serotonin receptor subtype 1B) (P28222 whole entry, species assumed): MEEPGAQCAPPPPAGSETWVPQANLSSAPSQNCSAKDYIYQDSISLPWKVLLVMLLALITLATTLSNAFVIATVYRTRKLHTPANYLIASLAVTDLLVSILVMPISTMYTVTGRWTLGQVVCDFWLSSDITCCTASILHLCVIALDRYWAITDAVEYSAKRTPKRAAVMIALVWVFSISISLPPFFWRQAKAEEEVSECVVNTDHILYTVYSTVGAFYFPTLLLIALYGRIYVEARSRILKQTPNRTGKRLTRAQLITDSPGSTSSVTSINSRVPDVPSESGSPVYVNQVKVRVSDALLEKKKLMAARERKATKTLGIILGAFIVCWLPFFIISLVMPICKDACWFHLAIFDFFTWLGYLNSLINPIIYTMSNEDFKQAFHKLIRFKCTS
Chain of NET (norepinephrine transporter) (P23975 whole entry, species assumed): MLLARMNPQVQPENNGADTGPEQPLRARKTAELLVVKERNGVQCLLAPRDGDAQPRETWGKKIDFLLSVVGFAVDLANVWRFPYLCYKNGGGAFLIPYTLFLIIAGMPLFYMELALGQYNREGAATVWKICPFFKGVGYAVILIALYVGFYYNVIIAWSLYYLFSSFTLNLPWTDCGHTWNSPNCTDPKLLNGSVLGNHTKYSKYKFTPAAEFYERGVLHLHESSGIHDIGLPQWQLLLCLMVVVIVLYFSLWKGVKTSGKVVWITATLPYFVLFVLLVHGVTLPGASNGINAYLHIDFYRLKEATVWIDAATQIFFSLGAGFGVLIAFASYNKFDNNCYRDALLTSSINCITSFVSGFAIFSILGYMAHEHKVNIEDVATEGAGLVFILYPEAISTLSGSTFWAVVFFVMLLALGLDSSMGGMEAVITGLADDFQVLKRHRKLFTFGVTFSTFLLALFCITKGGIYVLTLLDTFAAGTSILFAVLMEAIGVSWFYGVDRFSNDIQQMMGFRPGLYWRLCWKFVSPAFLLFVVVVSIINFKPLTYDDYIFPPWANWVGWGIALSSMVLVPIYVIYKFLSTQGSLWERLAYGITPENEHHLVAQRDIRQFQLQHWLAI
Chain of Sig-1R, sigma-1 receptor (Q9R0C9 whole entry): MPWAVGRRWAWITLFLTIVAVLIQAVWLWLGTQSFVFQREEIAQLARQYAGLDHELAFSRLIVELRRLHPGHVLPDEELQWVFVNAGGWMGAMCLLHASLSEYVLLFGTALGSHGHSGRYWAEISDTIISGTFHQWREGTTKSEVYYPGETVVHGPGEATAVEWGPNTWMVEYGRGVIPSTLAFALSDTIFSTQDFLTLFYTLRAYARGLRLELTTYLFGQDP

`CCCCCCCNCCCc1ccccc1` [2a, N-(3-Phenylpropyl)heptan-1-amine] gave a Ki [1] greater than 10 µM, an IC50 (MCF-7) of 20 ± 1 µM and a Ki (Sig-1R, sigma-1 receptor) of 0.09 µM. The Ki [2] was greater than 10 µM, the Ki [3] was greater than 10 µM and the IC50 (HT-29) was 40 ± 1 µM. It also gave a Ki [4] greater than 10 µM, a Ki [5] greater than 10 µM and a Ki [6] greater than 10 µM. The IC50 (MDA-MB-231) was 33 ± 2 µM, the IC50 (HCT-15) was 18 ± 12 µM and the Ki [7] was greater than 10 µM. The IC50 (SF-268) was 63 ± 2 µM, the Ki [8] was greater than 10 µM and the IC50 (NCI-H460) was 45 ± 5 µM. It also gave a Ki [9] greater than 10 µM, an IC50 (MCF-10A) of 70 ± 5 µM and an IC50 (SK-OV-3) greater than 100 µM. The IC50 (Du145) was 25 ± 1 µM, the Ki [10] was greater than 10 µM and the “activation of caspases 3/7, 8, and 9” value (caspases 3/7, 8, and 9) was “did not activate”. The Ki [11] was greater than 10 µM, the Ki [12] was greater than 10 µM and the “KI sigma-2 sites” value [13] was “nanomolar affinities”. It also gave a sigma-2/sigma-1 [13] of 2 and a Ki [14] greater than 10 µM.

Work on `CCCCCCCCCCCCNCCCc1ccccc1` [3a, N-(3-Phenylpropyl)dodecan-1-amine] yielded a Ki [1] greater than 10 µM, an IC50 (MCF-7) of 50 ± 18 µM and a Ki (Sig-1R, sigma-1 receptor) of 1.5 µM. The Ki [2] was greater than 10 µM, the Ki [3] was greater than 10 µM and the IC50 (HT-29) was 42 ± 21 µM. It also gave a Ki [4] greater than 10 µM, a Ki [5] greater than 10 µM and a Ki [6] greater than 10 µM. The IC50 (MDA-MB-231) was 54 ± 3 µM, the IC50 (HCT-15) was greater than 100 µM and the Ki [7] was greater than 10 µM. The IC50 (SF-268) was 60 ± 14 µM, the Ki [8] was greater than 10 µM and the IC50 (NCI-H460) was 55 ± 3 µM. The Ki [9] was greater than 10 µM, the IC50 (MCF-10A) was 53 ± 18 µM and the IC50 (SK-OV-3) was 60 ± 7 µM. The IC50 (Du145) was 51 ± 4 µM, the Ki [10] was greater than 10 µM and the “activation of caspases 3/7, 8, and 9” value (caspases 3/7, 8, and 9) was “did not activate”. For the same compound, the Ki [11] was greater than 10 µM, the Ki [12] was greater than 10 µM and the “KI sigma-2 sites” value [13] was “micromolar affinities”. For the same compound, the sigma-2/sigma-1 [13] was 0.4 and the Ki [14] was greater than 10 µM.

With `CCCCCCCCCCCCNCCCc1ccc([N+](=O)[O-])cc1` [3b, N-(3-(4-Nitrophenyl)propyl)dodecan-1-amine] the Ki [1] was greater than 10 µM, the IC50 (MCF-7) was 12 ± 1 µM and the Ki (Sig-1R, sigma-1 receptor) was 0.2 µM. It also gave a Ki [2] greater than 10 µM, a Ki [3] greater than 10 µM and an IC50 (HT-29) of 14 ± 0.2 µM. For the same compound, the Ki [4] was greater than 10 µM, the Ki [5] was greater than 10 µM and the Ki [6] was 0.7 µM. For the same compound, the IC50 (MDA-MB-231) was 15 ± 1 µM, the IC50 (HCT-15) was 25 µM and the Ki [7] was greater than 10 µM. For the same compound, the IC50 (SF-268) was 16 ± 1 µM, the Ki [8] was greater than 10 µM and the IC50 (NCI-H460) was 18 ± 2 µM. The Ki [9] was greater than 10 µM, the IC50 (MCF-10A) was 15 ± 1 µM and the IC50 (SK-OV-3) was 16 ± 1 µM. For the same compound, the IC50 (Du145) was 17 ± 0.4 µM, the Ki [10] was 7.9 µM and the “activation of caspases 3/7, 8, and 9” value (caspases 3/7, 8, and 9) was “did not activate”. The Ki [11] was 3.6 µM, the Ki [12] was 9 µM and the “KI sigma-2 sites” value [13] was “micromolar affinities”. For the same compound, the sigma-2/sigma-1 [13] was 0.5 and the Ki [14] was greater than 10 µM.
